“And” between values parts separate entries of the source, which are not always exact repeats. Identical values can stand only once. “Also recorded” adds a separate entry of the source. Like-named read-outs stand apart in the source and are kept apart here.
Key:
[1] = Plasma drug level in mice by LC-MS/MS; settings: C57BL/6, mouse
Method: Following compound administration, mice were euthanized at 2 hours, followed by perfusion.
(§3) Two hours after dosing, mice were anesthetized and blood was collected following transcardial puncture for the isolation of plasma. Mice were then perfused transcardially with saline and brain tissue removed.

[2] = Brain drug level in mice by LC-MS/MS; settings: for concentration at 2 h: male, C57BL/6, mouse, brain, po, 30 mg/kg; for brain permeability: pilot PK studies in mice
Description: as §3

[3] = test system: IFN-β induction in HEK293T cells expressing SARS-CoV-2 PL^pro; type: cell-based
[4] = test system: SARS-CoV-2; settings: cited from earlier work; for EC50: read-out: antiviral EC50; for EC90: read-out: antiviral EC90
[5] = test system: Vero E6 normal cells; settings: cited from earlier work
[6] = biological target: PL^pro ISG15 cleavage activity (Severe acute respiratory syndrome coronavirus 2, UniProt P0DTD1); test: PL^pro ISG15 substrate (deISGylase) assay; type: biochemical, SARS-CoV-2
Method: (§1) Briefly, in each assay, the enzyme was loaded into each well in the appropriate buffer, next the compounds were added into the well and incubated for 10-60 min at 37° C. The reaction was initiated by addition of substrate to each well and the fluorescent signal was read for 60 min at the appropriate excitation/emission.
(§2) For the PL^pro and PL^pro deubiquitinase assays, DTT was added to the assay buffer to achieve 1 mM DTT before the assay. A 10 mM stock of compounds was prepared in DMSO, this stock was diluted in assay buffer to achieve a 10× of the desire concentration in the well. Next, the PL^pro and deubiquitinase substrates were diluted to 42 μM and 0.5 μM respectively in the assay buffer. Then, PL^pro enzyme was diluted to 2.5 ng/μL and 6 ng/μL for the PL^pro and deubiquitinase assays respectively in the assay buffer. […] The reaction was started by adding 12.5 μL of the substrate to each well, the reaction was monitored for 1 h at excitation at 360 nm; emission at 460 nm. For the ISG15 substrate, PL^pro enzyme at 0.1 nM was incubated with compounds for lh and the reaction was initiated by adding ISG15-RH110 substrate at 500 nM, the reaction was monitored for 1-hour excitation at 485 nm; emission at 535 nm. […] Following the incubation, 2 μL of substrate at 25 μM was added into the wells and the fluorescent signal (ex/em 380/455 nm) was recorded for 1 h at 37° C.

[7] = biological target: spike protein-ACE2 complex (UniProt P0DTC2+Q9BYF1); settings: separate study; cited from earlier work
[8] = cited from earlier work
[9] = biological target: SARS-CoV-2 PL^pro (Severe acute respiratory syndrome coronavirus 2, UniProt P0DTD1); test: biochemical; settings: for inhibition at 50 µM: read-out: inhibition of PL^pro activity in library screening
[10] = biological target: SARS-CoV-2 M^pro (Severe acute respiratory syndrome coronavirus 2, UniProt P0DTD1); test: M^pro activity assay, fluorogenic substrate; type: biochemical; settings: alone, FIG. 7B
[11] = test system: IFN induction (IRF3 reporter); test: IFN induction assay, IRF3 binding site Firefly luciferase reporter with poly(I:C); type: cell-based
[12] = biological target: PL^pro deubiquitinase activity (Severe acute respiratory syndrome coronavirus 2, UniProt P0DTD1); test: PL^pro deubiquitinase substrate assay; type: biochemical, SARS-CoV-2
Method: as §1, §2

[13] = biological target: PL^pro (Severe acute respiratory syndrome coronavirus 2, UniProt P0DTD1); settings: read-out: reported PL^pro IC50; cited from earlier work
[14] = po, 30 mg/kg, plasma levels in combination DDL-701+DDL-750, mice, oral gavage 30 mg/kg, combination, FIG. 5
[15] = po, 30 mg/kg, plasma levels, mice, oral gavage 30 mg/kg, given alone, FIG. 5
[16] = male, oral, plasma levels in combination, mice, DDL-701 + DDL-750 both 30 mg/Kg oral, FIG. 9
[17] = male, po, 30 mg/kg, plasma levels, mice, oral 30 mg/Kg, given alone, FIG. 9
[18] = 1 μM, poly I:C, Wuhan strain PL^pro
[19] = Vero E6 cells infected with SARS-CoV-2
[20] = in combination with DDL-750 or DDL-750/DDL-751, FIG. 2
[21] = PL^pro peptide substrate, dose response, read-out: IC50 PL^pro inhibition
[22] = read-out: Cmax in human plasma after oral dosing, oral dosing
[23] = SARS-CoV-2 infected VeroE6 cells

spike protein-ACE2 complex, sequence (Q9BYF1 18-805, one chain of several): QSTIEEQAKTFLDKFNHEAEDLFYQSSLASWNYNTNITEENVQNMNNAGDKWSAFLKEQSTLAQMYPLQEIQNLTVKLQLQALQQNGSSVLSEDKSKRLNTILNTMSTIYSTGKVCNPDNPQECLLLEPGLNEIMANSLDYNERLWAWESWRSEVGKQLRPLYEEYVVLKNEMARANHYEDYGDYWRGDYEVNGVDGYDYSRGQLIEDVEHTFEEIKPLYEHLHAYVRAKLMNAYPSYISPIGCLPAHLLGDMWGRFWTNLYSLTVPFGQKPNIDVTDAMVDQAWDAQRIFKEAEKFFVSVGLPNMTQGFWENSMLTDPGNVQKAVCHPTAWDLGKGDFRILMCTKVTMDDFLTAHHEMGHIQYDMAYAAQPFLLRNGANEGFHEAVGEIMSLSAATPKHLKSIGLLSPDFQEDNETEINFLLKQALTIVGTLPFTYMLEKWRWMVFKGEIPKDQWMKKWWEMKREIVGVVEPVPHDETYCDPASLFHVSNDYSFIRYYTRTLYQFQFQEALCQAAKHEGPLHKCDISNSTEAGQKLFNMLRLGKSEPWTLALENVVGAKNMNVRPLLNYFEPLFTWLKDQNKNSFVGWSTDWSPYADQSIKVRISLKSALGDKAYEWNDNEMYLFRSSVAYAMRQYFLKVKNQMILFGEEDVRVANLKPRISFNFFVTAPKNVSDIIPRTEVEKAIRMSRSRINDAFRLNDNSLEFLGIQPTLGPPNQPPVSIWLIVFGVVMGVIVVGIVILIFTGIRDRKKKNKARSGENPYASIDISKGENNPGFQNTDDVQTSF

Question: With CC1=NN(c2ccc(C)c(C)c2)C(=O)/C1=N/Nc1cccc(-c2cccc(C(=O)O)c2)c1O [DDL-701, eltrombopag] as the compound, how does the concentration at 2 h [1, 14] read?
Answer: 4 µM

Question: And the concentration at 2 h [1, 15]?
Answer: ~11 µM

Question: What about the concentration at 2 h [1, 16] of the same compound?
Answer: ~4 µM and 1630 ng/mL

Question: And the concentration at 2 h [1, 17]?
Answer: ~14 µM and ~6210 ng/mL

Question: What about the concentration at 2 h [2] of the same compound?
Answer: ~1 µM and ~442 ng/g

Question: And the “brain penetration relative to nirmatrelvir” value ([2]; mice, oral 30 mg/Kg, 2 hours)?
Answer: > 5 fold

Question: What about the brain permeability [2] of the same compound?
Answer: brain-permeable

Question: What about the “rescue of IFN-β induction in the presence of PL^pro” value (from here on “rescue of IFN-β induction”) [3, 18] of the same compound?
Answer: modestly yet significantly rescued; also recorded: partially restored

Question: And the “rescue of IFN-β induction” value ([3]; higher concentrations than 1 μM)?
Answer: did not rescue induction

Question: And the EC50 [4, 19]?
Answer: 8.2 µM

Question: What about the EC90 [4, 19] of the same compound?
Answer: 9.5 µM

Question: What about the EC50 ([4]; Vero cells infected with SARS-CoV-2 (Sangeun J. et al., 2020)) of the same compound?
Answer: ~8 µM

Question: What about the CC50 [5] of the same compound?
Answer: > 50 µM

Question: And the IC50 ([6]; ISG15 substrate, dose response)?
Answer: 8 µM

Question: And the “ISG15 activity inhibition in combination” value [6, 20]?
Answer: inhibits

Question: What about the “effect on spike protein-ACE2 complex” value [7] of the same compound?
Answer: bind and reduce the stability

Question: And the AUC ([8]; human, single oral dose of 75 mg, tablet)?
Answer: 168 µg·h/mL

Question: And the Cmax ([8]; read-out: plasma Cmax, human, single oral dose of 75 mg, tablet)?
Answer: 25 to 36 µM

Question: And the Cmax ([8]; read-out: steady state drug level in plasma, Cmax, human, 75 mg tablet, oral dosing, steady state)?
Answer: ~50 µM

Question: And the “inhibition of PL^pro by DDL-701 in combination with DDL-750” value ([9]; DDL-701/750 at 50 μM/0.1 μM, FIG. 7A)?
Answer: not affected

Question: What about the “inhibition of PL^pro” value ([9]; DDL-701 alone at 50 μM, FIG. 7A) of the same compound?
Answer: almost complete

Question: What about the IC50 [9, 21] of the same compound?
Answer: 13 µM

Question: What about the “PLpro inhibition in combination” value [9, 20] of the same compound?
Answer: inhibits; also recorded: continues to show its inhibition

Question: What about the inhibition at 50 µM [9] of the same compound?
Answer: > 80%

Question: What about the “activity in M^pro activity assay” value [10] of the same compound?
Answer: did not show activity; also recorded: not M^pro

Question: And the IFN induction ([11]; at 10 and 1 μM)?
Answer: approximately 1.5 fold over DMSO

Question: And the IC50 ([12]; deubiquitinase substrate, dose response)?
Answer: 21 µM

Question: What about the “deubiquitinase inhibition in combination” value [12, 20] of the same compound?
Answer: inhibits

Question: Which Cmax [8, 22] does the source give for CCCCc1nc(Cl)c(CO)n1Cc1ccc(-c2ccccc2-c2nn[nH]n2)cc1 [losartan] here?
Answer: ~0.5 µM

Question: And the IC50 [13]?
Answer: ~13 µM

Question: Which IC50 [9, 21] does the source give for CC1=NN(c2ccc(C)c(C)c2)C(=O)/C1=N/Nc1cccc(-c2cccc(-c3nnn[nH]3)c2)c1O [DDL-713, thrombopoietin receptor agonist-1] here?
Answer: ~54 µM

Question: And the inhibition at 50 µM ([9]; compounds at 50 μM)?
Answer: > 80%

Question: Which results are given for CC(C)(C)[C@H](NC(=O)C(F)(F)F)C(=O)N1C[C@H]2[C@@H]([C@H]1C(=O)N[C@H](C#N)C[C@@H]1CCNC1=O)C2(C)C [DDL-750, nirmatrelvir]?
Answer: concentration at 2 h [1, 14]: 0.1 µM; concentration at 2 h [1, 15]: ~0.4 µM; concentration at 2 h [1, 16]: ~100 nM and ~55 ng/mL; concentration at 2 h [1, 17]: ~500 nM and ~234 ng/mL; concentration at 2 h [2]: ~180 nM and ~91 ng/g; brain permeability [2]: lower brain-permeability; rescue of IFN-β induction in the presence of PL^pro [3, 18]: not; rescue of IFN-β induction in the presence of PL^pro ([3]; any dose): Neither DDL-715 nor DDL-750 rescued IFN-β induction; EC50 [4, 23]: 0.074 µM; EC90 [4, 23]: 0.155 µM; CC50 [5]: > 100 µM; IFN induction ([11]; at 1 μM): approximately 1.3 fold over DMSO

Question: With CC(C)c1nc(CN(C)C(=O)N[C@H](C(=O)N[C@@H](Cc2ccccc2)C[C@H](O)[C@H](Cc2ccccc2)NC(=O)OCc2cncs2)C(C)C)cs1 [DDL-751, ritonavir] as the compound, how does the IFN induction ([11]; at the concentration tested) read?
Answer: did not produce IFN induction

Question: For O=C(O)c1cc(F)c2nc(N3[C@@H]4CC[C@H]3C[C@@H](OCc3c(-c5ccccc5OC(F)(F)F)noc3C3CC3)C4)sc2c1 [tropifexor], which Cmax [8, 22] is on record?
Answer: < 0.1 µM

Question: What about the IC50 [13] of the same compound?
Answer: ~6 µM

Question: For COc1cc(C(=O)NS(=O)(=O)c2ccccc2C)ccc1Cc1cn(C)c2ccc(NC(=O)OC3CCCC3)cc12 [DDL-715, zafirlukast], which concentration at 2 h [1, 15] is on record?
Answer: ~4 µM

Question: And the “rescue of IFN-β induction” value [3, 18]?
Answer: not

Question: What about the “rescue of IFN-β induction” value ([3]; any dose) of the same compound?
Answer: Neither DDL-715 nor DDL-750 rescued IFN-β induction

Question: And the Cmax ([8]; human, in vivo, po)?
Answer: ~0.5 µM

Question: And the IC50 [9]?
Answer: ~24 µM

Question: And the inhibition at 50 µM ([9]; compounds at 50 μM)?
Answer: > 80%

Question: What about the IFN induction ([11]; at 10 and 1 μM) of the same compound?
Answer: approximately 1.5 fold over DMSO

Reference: patent publication US20230381141A1, “CONJOINT THERAPIES FOR TREATING VIRAL INFECTIONS” (priority 2022, published 2023)
